Results taken from article PMC11763264, “Antibacterial and Antifungal Activities of Linear and Cyclic Peptides Containing Arginine, Tryptophan, and Diphenylalanine” (Antibiotics, 2025).
Values after ≈ are worked out from the molar mass of the structure shown. Non-standard residues stand in square brackets, D forms with d. Residues, ends and D or L forms follow the SMILES beside them. Dip = N[C@H](C(=O)O)C(c1ccccc1)c1ccccc1

Tests used:
[1] = tested on: P. aeruginosa (ATCC 27883); test: microbe, parasite or virus in culture; assay type: cell-based, Pseudomonas aeruginosa
Method: (§1) The antibacterial activity of all ten synthesized linear and cyclic peptides was evaluated against MRSA (ATCC BAA-1556), S. aureus (ATCC 29213), E. faecium (ATCC 700221), S. pneumoniae (ATCC 51938), E. faecalis (ATCC 29212), B. subtilis (ATCC-6633), K. pneumoniae (ATCC BAA-1705), P. aeruginosa (ATCC 27883), and E. coli (ATCC 25922). Meropenem and daptomycin were used as positive controls for this study. Certain peptides are marked as “NT” (not tested) against specific bacterial strains based on initial screening data. […] The MIC was determined by micro-broth dilution protocol, where the minimal concentrations were determined to be in wells with no visible bacterial growth.
(§2) All bacterial experiments were carried out in a laminar flow hood (Labconco, Kansas City, MO, USA). The bacterial strains were cultured following the guidelines set by the Clinical Laboratory Standards Institute (CLSI). Antibacterial assays were performed using a standard microtiter dilution method as described in previous studies. The minimum inhibitory concentration (MIC) refers to the lowest peptide concentration that inhibits bacterial growth in wells with no visible bacterial growth. MIC was determined by micro-broth dilution. Bacteria were cultured overnight in 6 mL of Luria Broth (LB). A stock solution of the peptide was prepared in water and DMSO, and a test compound solution with a concentration of 256 µg/mL was made in LB. Meropenem, with a solubility of 8 mg/mL, was prepared as a stock solution at 4 mg/500 µL. An aliquot of the overnight bacteria culture was diluted in normal saline (NS, 1 mL) until achieving a 0.5 McFarland turbidity (1.5 × 10^8 bacterial cell CFU/mL). A 0.5 McFarland compared solution (60 µL) was added to Mueller Hinton Broth (MH) 8940 µL to generate a 1/150 dilution. A 200 µL test compound solution was added to the first well of a 96-well plate, and the remaining wells (2–12) were filled with 100 µL of MH media using a multi-channel pipette from a sterile reservoir. A concentration of […] of the tested peptides was prepared from a stock solution of the samples for testing in Muller−Hinton broth MH media. Peptides stock solution was dissolved in 5% DMSO in water, and the final concentration of DMSO in the first well of assay plate was 2.5% DMSO/H2O and diluted across the assay plate.
(§3) A 100 µL sample from well 1 was pipetted into well 2, and the solution was mixed thoroughly by pipetting up and down. Next, 100 µL was transferred from well 2 to well 3, followed by thorough mixing. This 2-fold serial dilution process continued through well 11, with no additions made to well 12. The final 100 µL from well 11 was discarded. After completing the serial dilution, each well (1–12) contained 100 µL of solution. The bacterial culture in MH media was vortexed and transferred to a sterile reservoir, from which 100 µL was added to each well using a 12-channel pipette. (Note: The dilutions were further diluted upon adding the bacterial solution; for example, the concentration in well 1 started at […] after the addition of the bacterial culture.) The plates were incubated overnight at 37 °C for 24 h. All experiments were performed in triplicate and repeated twice, with controls consisting of bacteria in MH media and positive controls of daptomycin or meropenem.

E. coli (ATCC 25922) = test: microbe, parasite or virus in culture; assay type: cell-based, Escherichia coli
Method: as §1, §2, §3

[2] = tested on: S. pneumoniae (ATCC 51938); test: microbe, parasite or virus in culture; assay type: cell-based, Streptococcus pneumoniae
Method: as §1, §2, §3

E. faecium (ATCC 700221) = test: microbe, parasite or virus in culture; assay type: cell-based, Enterococcus faecium
Method: as §1, §2, §3

C. albicans (ATCC 60193) = test: microbe, parasite or virus in culture; assay type: cell-based, Candida albicans; conditions: ATCC 60193, 24 h
Method: (§4) The antifungal activity of all ten synthesized linear and cyclic peptides was evaluated against C. albicans (ATCC 60193), C. parapsilosis (ATCC 22019), and A. fumigatus (AF-293). Fluconazole and amphotericin B were used as positive controls for this study. The MIC was determined at concentrations in wells with no visible fungal growth.
(§5) In this study, C. albicans and C. parapsilosis were cultured on Yeast Peptone Dextrose (YPD) agar containing 1% w/v yeast extract, 2% w/v peptone, 2% w/v D-glucose, and 1.5% agar. A single colony from the agar was selected and cultured in Tryptone soy broth supplemented with 0.1% D-glucose, then incubated for 24 h at 37 °C. The cells were washed twice with PBS by centrifugation at 2000 RPM for 5 min. The pellet was resuspended in 5 mL of PBS, diluted in RPMI 1640 with L-glutamine, supplemented with 2% D-glucose, and the pH adjusted using HEPES buffer. The suspension was then incubated for 50 min at 35 °C to achieve a final cell concentration of 10^6 cells/mL.
(§6) Peptide concentrations of 50, 25, 12.5, 6.25, and 3.1 μg/mL were tested in triplicate and repeated twice. Each well of a 96-well plate was inoculated with the prepared inoculum suspension, which was diluted with RPMI media to a final volume of 200 μL per well. The control well received the same inoculum without any compound. The plates were incubated for 24 h at 37 °C. Fungal and microbial growth were visually observed in the control wells, and the minimum inhibitory concentration (MIC) was determined as the lowest concentration at which no growth was detected in the wells. Amphotericin B was used as a standard antifungal drug.

S. aureus (ATCC 29213) = test: microbe, parasite or virus in culture; assay type: cell-based, Staphylococcus aureus
Method: as §1, §2, §3

[3] = tested on: C. parapsilosis (ATCC 22019); test: microbe, parasite or virus in culture; assay type: cell-based, Candida parapsilosis; conditions: ATCC 22019, 24 h
Method: as §4, §5, §6

B. subtilis (ATCC-6633) = test: microbe, parasite or virus in culture; assay type: cell-based, Bacillus subtilis
Method: as §1, §2, §3

E. faecalis (ATCC 29212) = test: microbe, parasite or virus in culture; assay type: cell-based, Enterococcus faecalis
Method: as §1, §2, §3

MRSA (ATCC BAA-1556) = test: microbe, parasite or virus in culture; assay type: cell-based, Methicillin-Resistant Staphylococcus aureus
Method: as §1, §2, §3

[4] = tested on: K. pneumoniae (ATCC BAA-1705); test: microbe, parasite or virus in culture; assay type: cell-based, Klebsiella pneumoniae
Method: as §1, §2, §3

MRSA = conditions: previous work; cited from earlier work
Text: We have previously reported the synthesis of [E4W4], [KR5], [F4R5], [Y4R4], and [R4W4] and tested them against bacterial pathogens.

Compound | MIC ([1]; ATCC 27883, 24 h) [µM] | MIC (E. coli (ATCC 25922); ATCC 25922, 24 h) [µM] | MIC ([2]; ATCC 51938, 24 h) [µM] | MIC (E. faecium (ATCC 700221); ATCC 700221, 24 h) [µM] | MIC (C. albicans (ATCC 60193)) [µM] | MIC (S. aureus (ATCC 29213); ATCC 29213, 24 h) [µM] | MIC [3] [µM] | MIC (B. subtilis (ATCC-6633); ATCC-6633, 24 h) [µM] | MIC (E. faecalis (ATCC 29212); ATCC 29212, 24 h) [µM] | MIC (MRSA (ATCC BAA-1556); ATCC BAA-1556, 24 h) [µM] | MIC ([4]; ATCC BAA-1705, 24 h) [µM] | other results
N=C(N)NCCC[C@H](NC(=O)[C@@H](NC(=O)[C@H](CCCNC(=N)N)NC(=O)[C@H](Cc1c[nH]c2ccccc12)NC(=O)[C@H](CCCNC(=N)N)NC(=O)[C@H](Cc1c[nH]c2ccccc12)NC(=O)[C@H](CCCNC(=N)N)NC(=O)[C@H](Cc1c[nH]c2ccccc12)NC(=O)[C@H](CCCNC(=N)N)NC(=O)[C@@H](N)Cc1c[nH]c2ccccc12)C(c1ccccc1)c1ccccc1)C(=O)O [((DipR)(WR)4)] (H-WRWRWRWR[Dip]R-OH) | 25 (≈ 44.2 µg/mL) | 12.5 (≈ 22.1 µg/mL) | 0.78 (≈ 1.38 µg/mL) | 3.1 (≈ 5.48 µg/mL) | 28.2 (≈ 49.8 µg/mL) | 6.3 (≈ 11.1 µg/mL) | 14.1 (≈ 24.9 µg/mL) | 3.1 (≈ 5.48 µg/mL) | 12.5 (≈ 22.1 µg/mL) | 6.3 (≈ 11.1 µg/mL) | 12.5 (≈ 22.1 µg/mL) | 
N=C(N)NCCC[C@H](NC(=O)[C@H](CCCNC(=N)N)NC(=O)[C@@H](NC(=O)[C@H](CCCNC(=N)N)NC(=O)[C@@H](NC(=O)[C@H](CCCNC(=N)N)NC(=O)[C@@H](NC(=O)[C@H](CCCNC(=N)N)NC(=O)[C@@H](N)C(c1ccccc1)c1ccccc1)C(c1ccccc1)c1ccccc1)C(c1ccccc1)c1ccccc1)C(c1ccccc1)c1ccccc1)C(=O)O [(DipR)4R] (H-[Dip]R[Dip]R[Dip]R[Dip]RR-OH) | 12.5 (≈ 21.2 µg/mL) | 6.3 (≈ 10.7 µg/mL) | 0.39 (≈ 0.66 µg/mL) | 1.6 (≈ 2.71 µg/mL) | 7.4 (≈ 12.5 µg/mL) | 1.6 (≈ 2.71 µg/mL) | 7.4 (≈ 12.5 µg/mL) | 1.6 (≈ 2.71 µg/mL) | 3.1 (≈ 5.25 µg/mL) | 1.6 (≈ 2.71 µg/mL) | 6.3 (≈ 10.7 µg/mL) | 
C[C@@H](O)[C@H]1C(=O)N2C(C(=O)O)=C(S[C@@H]3CN[C@H](C(=O)N(C)C)C3)[C@H](C)[C@H]12 [Meropenem, reference compound] |  |  |  |  |  |  |  |  |  |  |  | MIC ([1]; Pseudomonas aeruginosa, ATCC27883, micro-broth dilution, Mueller Hinton broth, 37 °C, 24 h, no visible growth, triplicate, repeated twice, NA = Not active): 2.6 µM (≈ 0.997 µg/mL); MIC (E. coli (ATCC 25922); Escherichia coli, ATCC25922, micro-broth dilution, Mueller Hinton broth, 37 °C, 24 h, no visible growth, triplicate, repeated twice, NA = Not active): 2.6 µM (≈ 0.997 µg/mL); MIC ([2]; Streptococcus pneumoniae, ATCC51938, micro-broth dilution, Mueller Hinton broth, 37 °C, 24 h, no visible growth, triplicate, repeated twice): 0.6 µM (≈ 0.23 µg/mL); MIC (E. faecium (ATCC 700221); Enterococcus faecium, ATCC700221, micro-broth dilution, Mueller Hinton broth, 37 °C, 24 h, no visible growth, triplicate, repeated twice): 83 µM (≈ 31.8 µg/mL); MIC (S. aureus (ATCC 29213); Staphylococcus aureus, ATCC29213, micro-broth dilution, Mueller Hinton broth, 37 °C, 24 h, no visible growth, triplicate, repeated twice): 0.5 µM (≈ 0.192 µg/mL); MIC (B. subtilis (ATCC-6633); Bacillus subtilis, ATCC6633, micro-broth dilution, Mueller Hinton broth, 37 °C, 24 h, no visible growth, triplicate, repeated twice): 0.6 µM (≈ 0.23 µg/mL); MIC (E. faecalis (ATCC 29212); Enterococcus faecalis, ATCC29212, micro-broth dilution, Mueller Hinton broth, 37 °C, 24 h, no visible growth, triplicate, repeated twice): 5.2 µM (≈ 1.99 µg/mL); MIC (MRSA (ATCC BAA-1556); Staphylococcus aureus, micro-broth dilution, Mueller Hinton broth, 37 °C, 24 h, no visible growth, triplicate, repeated twice): 5.2 µM (≈ 1.99 µg/mL); MIC ([4]; Klebsiella pneumoniae, ATCCBAA1705, micro-broth dilution, Mueller Hinton broth, 37 °C, 24 h, no visible growth, triplicate, repeated twice, NA = Not active): 42 µM (≈ 16.1 µg/mL)
[R4W4] |  |  |  |  |  |  |  |  |  |  |  | MIC against MRSA (MRSA): 2.67 µg/mL
